# Data published in US12522562B2, “Intestine-specific partial agonists of farnesoid X receptor and uses thereof” (EWHA DrugDesignHouse Co., Ltd., priority 2022, dated 2026).
# Like-named read-outs stand apart in the source and are kept apart here. Marks after values point to notes of the source that are not given here.
# Key:
# patients with NASH = conditions: cited from earlier work
# FXR [1] = target: T1, FXR (Homo sapiens, UniProt Q96RI1); conditions: Chianelli et al., J. Med. Chem. 2020; cited from earlier work
# T1 sequence (Q96RI1 1-486): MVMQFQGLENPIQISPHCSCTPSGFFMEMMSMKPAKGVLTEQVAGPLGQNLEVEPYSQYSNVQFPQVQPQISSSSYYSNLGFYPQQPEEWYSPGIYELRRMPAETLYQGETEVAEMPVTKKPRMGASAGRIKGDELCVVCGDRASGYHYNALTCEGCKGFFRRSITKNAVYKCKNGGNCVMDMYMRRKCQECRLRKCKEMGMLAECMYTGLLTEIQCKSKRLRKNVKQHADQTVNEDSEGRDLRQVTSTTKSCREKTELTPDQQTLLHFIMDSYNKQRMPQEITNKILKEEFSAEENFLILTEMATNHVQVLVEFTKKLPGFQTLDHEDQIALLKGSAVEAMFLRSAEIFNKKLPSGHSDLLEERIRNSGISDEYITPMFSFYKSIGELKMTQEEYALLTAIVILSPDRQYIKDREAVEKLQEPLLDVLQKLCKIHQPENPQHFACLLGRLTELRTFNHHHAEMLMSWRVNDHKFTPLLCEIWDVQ
# PPARδ = target: T2, PPARδ (Homo sapiens, UniProt Q03181); assay: Nuclear receptor selectivity panel (PathHunter NHR protein interaction assay); conditions: read-out: ref. compd (EC50); reference compound for PPARδ
# T2 sequence (Q03181 1-441): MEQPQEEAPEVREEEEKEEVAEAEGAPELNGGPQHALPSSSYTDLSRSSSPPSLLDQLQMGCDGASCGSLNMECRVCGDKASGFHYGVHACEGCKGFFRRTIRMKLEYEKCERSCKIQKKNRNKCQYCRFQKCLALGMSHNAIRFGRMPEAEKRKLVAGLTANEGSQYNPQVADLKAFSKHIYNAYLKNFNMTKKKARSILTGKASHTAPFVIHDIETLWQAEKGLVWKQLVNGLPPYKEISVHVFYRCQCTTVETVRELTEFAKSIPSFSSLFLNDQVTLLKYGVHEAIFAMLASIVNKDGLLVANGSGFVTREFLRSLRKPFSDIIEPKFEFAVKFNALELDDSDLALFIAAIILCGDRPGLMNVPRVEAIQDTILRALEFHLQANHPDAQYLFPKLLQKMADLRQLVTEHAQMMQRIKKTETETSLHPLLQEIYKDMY
# [2] = Pharmacokinetic studies of Example 11 in rats; format: in vivo, Sprague-Dawley rats
# Description: To investigate whether Example 11 is indeed an intestine-selective/specific FXR agonist, its pharmacokinetic profile was evaluated. Male Sprague-Dawley rats (7-week old, 240-260 g) were purchased from Orient Bio. Inc. (Seongnam, Korea). Rats were kept in the cage maintained under a controlled environment (temperature of 23±3° C., relative humidity of 50±5%, and 12 h dark-light cycle) for at least 3 days. Rats were fasted overnight before dose administration. The Example 11 was dissolved in a mixture of DMSO, Tween 80, and 0.9% saline solution (v:v:v, 1:1:8) at a concentration of 2.5 mg/mL for intravenous injection (IV). Also, Example 11 was dissolved in corn oil for oral administration (PO). Rats were divided into two groups; IV group and PO group including at least 6 animals per group. After anesthetized with isoflurane, rats were given the dose of 5 mg/kg via IV injection or 80 mg/kg via PO administration by oral gavage into the stomach. Blood samples (approximately 0.25 mL) were obtained by subclavian vein puncture at 0, 0.033, 0.083, 0.167, 0.333, 0.667, 1, 2, 3, 5, 7, 10, and 24 h after IV injection. After PO administration, blood samples were obtained at 0, 0.083, 0.167, 0.333, 0.667, 1, 2, 3, 5, 7, 10, and 24 h post-dose. Subsequently, blood samples were collected in 1.5-mL Eppendorf tube on an ice. The tubes were centrifuged at 13500 rpm for 15 min at 4° C. to separate the plasma fraction. Then, the plasma samples were stored at […] until HPLC analysis. To prepare the samples for HPLC analysis, 5 μL of Example 11 or Example 24 and 5 μL of internal standard, Example 4 were added to 45 μL of plasma. For extraction, 45 μL of MeCN was added to the mixture. Then, the mixture was vortexed for 2 min and centrifuged at 13500 rpm for 15 min at room temperature. The 60 μL of clear supernatant was transferred to an insert. Then, the HPLC auto-injector was programmed to inject 40 μL of the sample to the HPLC system for analysis. The linearity of the calibration curve was obtained by plotting the peak area ratio (area of Example 11 or area of Example 24/area of Example 4). Pharmacokinetic parameters were calculated by non-compartmental analysis of the plasma concentration-time profiles using Winnonlin® Professional version 8.01 software (Pharsight Corporation, Mountain View, CA). Oral bioavailability (F) was calculated by the ratio of the dose-corrected area under the plasma drug concentration-time curve (AUClast) between oral administration and intravenous injection.
# FXR [3] = target: T1, FXR; assay: PathHunter NHR protein interaction assay, antagonist mode (GW4064 challenge at EC80); format: cell-based; conditions: pre-incubation, then GW4064 at EC80
# FXR [4] = target: T1, FXR; assay: PathHunter NHR protein interaction assay, agonist mode (FXR)
# Description: PathHunter® CHO-K1 FXR protein interaction cells were expanded from freezer stocks according to standard procedures. Cells were seeded in a total volume of 20 μL into white walled, 384-well microplates and incubated at 37° C. for the appropriate time prior to testing. Assay media contained charcoal-dextran filtered serum to reduce the level of hormones present. For agonist determination, cells were incubated with sample to induce response. […] For antagonist determination, cells were pre-incubated with antagonist followed by agonist challenge at the EC80 concentration. […] Microplates were read following signal generation with a PerkinElmer Envision™ instrument for chemiluminescent signal detection. Compound activity was analyzed using CBIS data analysis suite (ChemInnovation, CA). For agonist mode assays, percentage activity was calculated using the following formula: % Activity=100%×(mean RLU of test sample−mean RLU of vehicle control)/(mean MAX control ligand−mean RLU of vehicle control).
# In this assay, two weakly complementing fragments of the β-galactosidase are expressed within stably transfected cells. The complementing fragments of the β-galactosidase are translationally fused to the C-terminus of a full-length FXR and to the steroid receptor coactivator peptide (SRCP), respectively. When bound by ligand, the FXR will migrate to the nucleus and recruit the SRCP domain, whereby complementation occurs, generating a unit of active β-galactosidase and production of chemiluminescent signal. Thus, measurement of chemiluminescent signal directly reflects FXR-coactivator interaction.
# PPARγ = target: T3, PPARγ (Homo sapiens, UniProt P37231); assay: Nuclear receptor selectivity panel (PathHunter NHR protein interaction assay); conditions: read-out: % max. rel. efficacy at 100 uM, 100 μM; relative to troglitazone
# T3 sequence (P37231 1-505): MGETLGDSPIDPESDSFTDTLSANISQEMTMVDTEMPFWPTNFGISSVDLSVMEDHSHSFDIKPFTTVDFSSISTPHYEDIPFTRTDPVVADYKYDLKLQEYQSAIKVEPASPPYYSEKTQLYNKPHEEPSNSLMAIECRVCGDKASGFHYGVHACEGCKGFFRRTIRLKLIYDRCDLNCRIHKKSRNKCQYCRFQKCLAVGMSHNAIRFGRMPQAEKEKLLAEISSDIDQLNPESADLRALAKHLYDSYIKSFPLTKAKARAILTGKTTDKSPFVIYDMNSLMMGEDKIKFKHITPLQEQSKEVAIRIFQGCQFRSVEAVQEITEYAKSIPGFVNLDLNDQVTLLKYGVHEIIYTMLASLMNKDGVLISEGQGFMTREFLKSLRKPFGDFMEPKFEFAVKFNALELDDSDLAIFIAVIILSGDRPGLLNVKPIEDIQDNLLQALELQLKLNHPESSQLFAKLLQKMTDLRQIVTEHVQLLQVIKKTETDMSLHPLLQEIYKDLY
# Erα = target: T4, Erα (Homo sapiens, UniProt P03372); assay: as above; conditions: relative to 17β-estradiol
# T4 sequence (P03372 1-595): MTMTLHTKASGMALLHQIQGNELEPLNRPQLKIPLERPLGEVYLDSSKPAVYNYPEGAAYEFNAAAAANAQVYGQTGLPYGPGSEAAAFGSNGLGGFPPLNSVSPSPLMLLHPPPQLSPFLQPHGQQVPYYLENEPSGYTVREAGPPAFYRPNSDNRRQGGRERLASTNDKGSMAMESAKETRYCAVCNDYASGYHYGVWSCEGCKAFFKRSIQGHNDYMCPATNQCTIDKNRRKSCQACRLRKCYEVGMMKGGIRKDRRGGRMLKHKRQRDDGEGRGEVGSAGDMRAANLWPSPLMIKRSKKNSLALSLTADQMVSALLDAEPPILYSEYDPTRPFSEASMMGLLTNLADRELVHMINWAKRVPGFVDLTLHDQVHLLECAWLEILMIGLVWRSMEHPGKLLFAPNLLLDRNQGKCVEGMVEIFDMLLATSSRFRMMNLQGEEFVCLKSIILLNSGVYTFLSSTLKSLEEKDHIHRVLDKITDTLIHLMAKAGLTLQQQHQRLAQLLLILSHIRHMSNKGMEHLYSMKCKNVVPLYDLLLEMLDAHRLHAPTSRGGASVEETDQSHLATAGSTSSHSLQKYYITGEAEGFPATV
# LXRβ = target: T5, LXRβ (Homo sapiens, UniProt P55055); assay: as above; conditions: read-out: % max. rel. efficacy at 100 uM, 100 μM; relative to TO901317
# T5 sequence (P55055 1-460): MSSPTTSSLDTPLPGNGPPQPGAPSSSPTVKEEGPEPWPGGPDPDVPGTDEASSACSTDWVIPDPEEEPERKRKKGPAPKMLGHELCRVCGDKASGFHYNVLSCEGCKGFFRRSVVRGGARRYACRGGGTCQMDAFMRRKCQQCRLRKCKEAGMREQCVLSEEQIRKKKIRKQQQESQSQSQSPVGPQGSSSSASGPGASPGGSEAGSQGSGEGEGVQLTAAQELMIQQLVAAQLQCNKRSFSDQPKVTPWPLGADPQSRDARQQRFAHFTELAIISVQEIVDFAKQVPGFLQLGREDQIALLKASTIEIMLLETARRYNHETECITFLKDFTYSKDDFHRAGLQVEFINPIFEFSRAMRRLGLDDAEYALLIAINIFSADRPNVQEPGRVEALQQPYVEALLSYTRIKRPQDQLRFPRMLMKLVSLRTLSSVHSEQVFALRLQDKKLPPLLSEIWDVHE
# [5] = Fang et al., Nat. Med. 2015; cited from earlier work
# [6] = system: patients with non-cirrhotic NASH; conditions: 100 mg, Phase II; cited from earlier work
# [7] = rat plasma, intravenous dose of Example 11, 5 mg/kg, Example 24 measured as metabolite
# [8] = rat, intravenous dose of Example 11, 5 mg/kg, Example 24 measured as metabolite
# [9] = Table 2, 5 concentrations, 3-fold dilution from 3.3 μM (GW4064: 10 conc. from 10 μM), one experiment in duplicate, NA = inactive at 3.3 μM
# [10] = Table 5, relative to GW4064, mean ± SEM of two or three independent experiments in duplicate
# [11] = read-out: % max. rel. efficacy, Table 2, relative to GW4064, top conc. 3.3 μM, one experiment in duplicate
# [12] = read-out: % max. rel. efficacy, Table 4, relative to GW4064, top conc. 3.3 μM, one experiment in duplicate
# [13] = read-out: % max. rel. efficacy, Table 5, relative to GW4064, mean ± SEM of two or three independent experiments in duplicate
structure (smiles),measurement,setting,value
Cn1nc(C(=O)N(Cc2ccccc2)Cc2ccc(C(=O)O)cc2)c2c1-c1cc(Cl)ccc1OC2 [nidufexor],reduction of LFC (liver fat content),"patients with NASH; Phase II, NASH",about 30%
same,rate of pruritus,patients with NASH; high-dose group,54%
same,rate of pruritus,patients with NASH; low-dose group,30%
same,maximum efficacy relative to GW4064,FXR [1],57%
"CCCc1c(OCCCOc2ccc(OCC(=O)O)cc2)ccc(C(C)=O)c1O [L-165,041]",EC50,PPARδ,6 nM
CN(C)c1ccc(-c2ccc(CN(C(=O)C3CCCCC3)c3cc(F)cc(/C=C/C(=O)O)c3)cc2C#N)cc1 [Example 24],AUClast,[2]; [7],1200 ± 100 ng·h/mL
same,t1/2,[2]; [7],14.4 ± 3 min
same,detected in plasma until (time after administration),"[2]; rat, intravenous Example 11, 5 mg/kg, metabolite",1 h
same,CL,[2]; [8],70 ± 6.7 mL/min/kg
same,Vss,[2]; [8],1.4 ± 0.2 L/kg
same,detected after (time after oral administration),"[2]; rat, oral Example 11, 80 mg/kg",3 h
same,% antagonistic efficacy,FXR [3]; 3.3 μM,7%
same,% antagonistic efficacy,FXR [3]; 10 μM,26%
same,% agonistic efficacy,"FXR [4]; Table 7, 10 μM",0%
"COC(=O)/C=C/c1cccc(N(Cc2ccc(-c3ccc(N(C)C)cc3)c(C#N)c2)C(=O)C2CCCCC2)c1 [Example 4, (E)-3-(3-((2-cyano-4′-dimethylaminobiphenyl-4-ylmethyl)cyclohexanecarbonylamino)phenyl)acrylic Acid Methyl Ester]",Emax at 100 µM,PPARγ,< 3%
same,EC50,FXR [4],1000 nM
same,EC50,FXR [4]; [9],800 nM
same,EC50,"FXR [4]; Table 5, mean ± SEM of two or three independent experiments in duplicate",800 ± 100 nM
same,% max. rel. efficacy,FXR [4]; [10],40 ± 8^b %
same,Emax at 100 µM,"FXR [4]; read-out: % max. rel. efficacy at 100 uM, Table 3, 100 μM, relative to GW4064",47%
same,Emax,FXR [4]; [11],24%
same,Emax,FXR [4]; [12],47%
same,Emax,FXR [4]; [13],40 ± 8%
same,% max. rel. efficacy at 100 uM,Erα,1%
same,Emax at 100 µM,LXRβ,< 3%
"COC(=O)/C=C/c1cccc(N(Cc2ccc(-c3ccc(N(C)C)cc3)cc2)C(=O)C2CCCCC2)c1 [Fexaramine, reference compound]",oral bioavailability,[5],12%
same,EC50,FXR [4],1000 nM
same,EC50,FXR [4]; [9],800 nM
same,% max. rel. efficacy,FXR [4]; [10],29 ± 4^b %
same,Emax,FXR [4]; [11],21%
same,Emax,FXR [4]; [12],34%
same,Emax,FXR [4]; [13],29 ± 4%
O=C(O)c1ccnc(N2CC(O)(c3ccc(OCc4c(-c5c(Cl)cccc5Cl)noc4C4CC4)cc3Cl)C2)c1 [cilofexor],median relative decrease in hepatic steatosis,[6],−22.7%
same,moderate to severe pruritus (patients),[6],14%
